Source: patent US10760110B2, “Antibiotic testing and screening system” (priority 2017, dated 2020)
Where two headings read alike, the source gives them in different places.

Assays:
[1] = system: K. pneumoniae NVT1001 and its GyrA/ParC and ΔramR mutants; test: Etest MIC of quinolones, GyrA/ParC mutations and AcrAB-TolC overexpression (ΔramR) (Table 10); assay type: cell-based; settings: Klebsiella pneumoniae
From the text: DNA fragments of the entire gyrA and parC sequences along with their flanking regions were amplified from K. pneumoniae strain NVT1001 using PCR with specific primer pairs and then cloned into the plasmid pUT-KB. The QuikChange site-directed mutagenesis kit (Stratagene) was used to generate mutations in the gyrA and parC genes in the plasmid using the methods described by the manufacturer. For homologous recombination, plasmids containing mutations in the gyrA or parC gene were transformed into E. coli S17-1 λpir^23 via electroporation and mobilized into K. pneumoniae strain NVT1001 via conjugation. Single-crossover strains were selected from BIND plates supplemented with kanamycin (50 mg/L), as the growth of non-K. pneumoniae contaminants is suppressed on BIND plates.^24 After the kanamycin-resistant transconjugants were selected, the insertion of plasmids was verified via PCR. After incubation in 20 mL BHI broth for 6 hours at 37° C. in the absence of kanamycin, the fully grown cultures were spread onto LB agar plates supplemented with 10% sucrose. After the double crossover occurred, the sucrose-resistant and kanamycin-susceptible colonies were selected, and the gene mutations were confirmed via PCR.
(§1) The MICs of antibiotics were determined using the Etest (Biodisk AB, Sweden) according to the manufacturer's instructions. The MICs from the Etest, which fall between standard two-fold dilutions, were rounded up to the next highest two-fold value. The MICs of ceftazidime and cefotaxime against K. pneumoniae NVT1001 harbouring the pACYC177 plasmid with blaOXA-48 were further determined using a broth microdilution test according to the recommendations of the CLSI,^25 and the results were interpreted according to the breakpoints established by the CLSI in 2017.^25 Meanwhile, due to the lack of CLSI breakpoints in 2016 and 2017, the results for cephalothin were interpreted according to the breakpoints established by the CLSI in 2015,^26 and the results for moxifloxacin were interpreted according to the breakpoints established by the EUCAST in 2017.^27

[2] = system: A. baumannii KW1 and its GyrA/ParC mutants; test: Etest MIC of quinolones, GyrA and/or ParC mutations (Table 17); assay type: cell-based; settings: Acinetobacter baumannii
From the text: DNA fragments of the entire adeR, adeS, gyrA and parC along with their flanking regions were amplified from A. baumannii KW1 using PCR with specific primer pairs and then cloned into plasmid pUT-KB. The QuikChange site-directed mutagenesis kit (Stratagene) was used to generate mutations in the adeR, adeS, gyrA and parC genes in the plasmids using the methods described by the manufacturer. For homologous recombination, plasmids containing mutations in the adeR, adeS, gyrA or parC gene were transformed into E. coli S17-1 λpir^23 via electroporation and mobilized into A. baumannii KW1 via conjugation. Single-crossover strains were selected from Luria-Bertani (LB) plates supplemented with cefotaxime (1 μg/ml) and kanamycin ([…]), as the growth of non-A. baumannii contaminants is suppressed by cefotaxime (1 μg/ml). The kanamycin-resistant transconjugants were selected and the insertion of plasmids was verified via PCR. After incubation in 20 ml brain heart infusion (BHI) broth for 6 hours in the absence of kanamycin at 37° C., the fully grown cultures were spread onto LB plates supplemented with 10% sucrose. After the double crossover occurred, the sucrose-resistant and kanamycin-susceptible colonies were selected, and the gene mutations were confirmed via PCR.
as §1

| SMILES | MIC ([1]; D87N mutant (GyrA D87N)) [µg/mL] | MIC ([1]; D87N/S80I mutant) [µg/mL] | MIC ([1]; NVT1001, read-out: MIC) [µg/mL] | MIC ([1]; S80I mutant (ParC S80I)) [µg/mL] | MIC ([1]; S83F mutant (GyrA S83F)) [µg/mL] | MIC ([1]; S83F/D87N mutant) [µg/mL] | MIC ([1]; S83F/D87N/S80I mutant) [µg/mL] | MIC ([1]; S83F/S80I mutant) [µg/mL] | MIC ([1]; S83I mutant (GyrA S83I)) [µg/mL] | MIC ([1]; S83I/D87N mutant) [µg/mL] | MIC ([1]; S83I/D87N/S80I mutant) [µg/mL] | MIC ([1]; S83I/S80I mutant) [µg/mL] | MIC ([1]; S83L mutant (GyrA S83L)) [µg/mL] | MIC ([1]; S83L/D87N mutant) [µg/mL] | MIC ([1]; S83L/D87N/S80I mutant) [µg/mL] | MIC ([1]; S83L/S80I mutant) [µg/mL] | MIC ([1]; S83Y mutant (GyrA S83Y)) [µg/mL] | MIC ([1]; S83Y/D87N mutant) [µg/mL] | MIC ([1]; S83Y/D87N/S80I mutant) [µg/mL] | MIC ([1]; S83Y/S80I mutant) [µg/mL] | other results |
| --- | --- | --- | --- | --- | --- | --- | --- | --- | --- | --- | --- | --- | --- | --- | --- | --- | --- | --- | --- | --- | --- |
| C[C@H]1COc2c(N3CCN(C)CC3)c(F)cc3c(=O)c(C(=O)O)cn1c23 [Levofloxacin, levofloxacin] | 0.5 | 0.5 | 0.06 | 0.125 | 0.5 | 0.5 | 8 | 0.5 | 0.5 | 1 | 8 | 2 | 0.5 | 0.5 | 8 | 1 | 0.5 | 0.5 | 4 | 1 | MIC ([1]; ΔramR mutant): 1 µg/mL; MIC ([1]; ΔramR/S83I mutant): 16 µg/mL; MIC ([1]; ΔramR/S83I/D87N/S80I mutant): > 32 µg/mL; MIC ([1]; ΔramR/S83I/S801 mutant): > 32 µg/mL; MIC ([2]; E84K mutant): 0.19 µg/mL; MIC ([2]; G78C mutant): 0.19 µg/mL; MIC ([2]; KW1, read-out: MIC): 0.19 µg/mL; MIC ([2]; S80L mutant): 0.19 µg/mL; MIC ([2]; S80W mutant): 0.19 µg/mL; MIC ([2]; S80Y mutant): 0.19 µg/mL; MIC ([2]; S83L mutant): 1 µg/mL; MIC ([2]; S83L/E84K mutant): > 32 µg/mL; MIC ([2]; S83L/G78C mutant): 32 µg/mL; MIC ([2]; S83L/S80L mutant): > 32 µg/mL; MIC ([2]; S83L/S80W mutant): > 32 µg/mL; MIC ([2]; S83L/S80Y mutant): > 32 µg/mL |
| COc1c(N2C[C@@H]3CCCN[C@@H]3C2)c(F)cc2c(=O)c(C(=O)O)cn(C3CC3)c12 [Moxifloxacin, moxifloxacin] | 0.5 | 1 | 0.125 | 0.25 | 0.5 | 0.5 | 32 | 1 | 1 | 1 | > 32 | 8 | 0.5 | 0.5 | 32 | 2 | 0.5 | 0.5 | 32 | 1 | MIC ([1]; ΔramR mutant): 1 µg/mL; MIC ([1]; ΔramR/S83I mutant): 8 µg/mL; MIC ([1]; ΔramR/S83I/D87N/S80I mutant): > 32 µg/mL; MIC ([1]; ΔramR/S83I/S801 mutant): > 32 µg/mL; MIC ([2]; E84K mutant): 0.19 µg/mL; MIC ([2]; G78C mutant): 0.19 µg/mL; MIC ([2]; KW1, read-out: MIC): 0.19 µg/mL; MIC ([2]; S80L mutant): 0.25 µg/mL; MIC ([2]; S80W mutant): 0.19 µg/mL; MIC ([2]; S80Y mutant): 0.19 µg/mL; MIC ([2]; S83L mutant): 0.75 µg/mL; MIC ([2]; S83L/E84K mutant): 6 µg/mL; MIC ([2]; S83L/G78C mutant): 4 µg/mL; MIC ([2]; S83L/S80L mutant): 6 µg/mL; MIC ([2]; S83L/S80W mutant): 8 µg/mL; MIC ([2]; S83L/S80Y mutant): 6 µg/mL |
| CCn1cc(C(=O)O)c(=O)c2ccc(C)nc21 [Nalidixic acid, nalidixic acid] | > 256 | > 256 | 4 | 8 | > 256 | > 256 | > 256 | > 256 | > 256 | > 256 | > 256 | > 256 | > 256 | > 256 | > 256 | > 256 | > 256 | > 256 | > 256 | > 256 | MIC ([1]; ΔramR mutant): 32 µg/mL; MIC ([1]; ΔramR/S83I mutant): > 256 µg/mL; MIC ([1]; ΔramR/S83I/D87N/S80I mutant): > 256 µg/mL; MIC ([1]; ΔramR/S83I/S801 mutant): > 256 µg/mL; MIC ([2]; E84K mutant): 12 µg/mL; MIC ([2]; G78C mutant): 12 µg/mL; MIC ([2]; KW1, read-out: MIC): 12 µg/mL; MIC ([2]; S80L mutant): 12 µg/mL; MIC ([2]; S80W mutant): 12 µg/mL; MIC ([2]; S80Y mutant): 12 µg/mL; MIC ([2]; S83L mutant): > 256 µg/mL; MIC ([2]; S83L/E84K mutant): > 256 µg/mL; MIC ([2]; S83L/G78C mutant): > 256 µg/mL; MIC ([2]; S83L/S80L mutant): > 256 µg/mL; MIC ([2]; S83L/S80W mutant): > 256 µg/mL; MIC ([2]; S83L/S80Y mutant): > 256 µg/mL |
| CCn1cc(C(=O)O)c(=O)c2cc(F)c(N3CCNCC3)cc21 [Norfloxacin, norfloxacin] | 2 | 2 | 0.25 | 0.25 | 2 | 2 | 32 | 8 | 2 | 2 | 64 | 16 | 2 | 2 | 64 | 8 | 2 | 2 | 32 | 8 | MIC ([1]; ΔramR mutant): 2 µg/mL; MIC ([1]; ΔramR/S83I mutant): 8 µg/mL; MIC ([1]; ΔramR/S83I/D87N/S80I mutant): > 256 µg/mL; MIC ([1]; ΔramR/S83I/S801 mutant): 128 µg/mL; MIC ([2]; E84K mutant): 4 µg/mL; MIC ([2]; G78C mutant): 4 µg/mL; MIC ([2]; KW1, read-out: MIC): 4 µg/mL; MIC ([2]; S80L mutant): 4 µg/mL; MIC ([2]; S80W mutant): 6 µg/mL; MIC ([2]; S80Y mutant): 4 µg/mL; MIC ([2]; S83L mutant): 24 µg/mL; MIC ([2]; S83L/E84K mutant): > 256 µg/mL; MIC ([2]; S83L/G78C mutant): > 256 µg/mL; MIC ([2]; S83L/S80L mutant): > 256 µg/mL; MIC ([2]; S83L/S80W mutant): > 256 µg/mL; MIC ([2]; S83L/S80Y mutant): > 256 µg/mL |
| CC1COc2c(N3CCN(C)CC3)c(F)cc3c(=O)c(C(=O)O)cn1c23 (stereo not drawn) [Ofloxacin, ofloxacin] | 1 | 1 | 0.25 | 0.25 | 2 | 2 | 16 | 2 | 2 | 2 | 32 | 4 | 2 | 2 | 32 | 4 | 2 | 2 | 16 | 2 | MIC ([1]; ΔramR mutant): 2 µg/mL; MIC ([1]; ΔramR/S83I mutant): > 32 µg/mL; MIC ([1]; ΔramR/S83I/D87N/S80I mutant): > 32 µg/mL; MIC ([1]; ΔramR/S83I/S801 mutant): > 32 µg/mL; MIC ([2]; E84K mutant): 0.38 µg/mL; MIC ([2]; G78C mutant): 0.38 µg/mL; MIC ([2]; KW1, read-out: MIC): 0.38 µg/mL; MIC ([2]; S80L mutant): 0.5 µg/mL; MIC ([2]; S80W mutant): 0.5 µg/mL; MIC ([2]; S80Y mutant): 0.38 µg/mL; MIC ([2]; S83L mutant): 6 µg/mL; MIC ([2]; S83L/E84K mutant): > 32 µg/mL; MIC ([2]; S83L/G78C mutant): 32 µg/mL; MIC ([2]; S83L/S80L mutant): > 32 µg/mL; MIC ([2]; S83L/S80W mutant): > 32 µg/mL; MIC ([2]; S83L/S80Y mutant): > 32 µg/mL |
